Experimental data published in patent US20010047016A1, “Method for treating depression” (priority 2000, published 2001).

Assays:
[1] = test system: mouse; conditions: mouse tail suspension test; cited from earlier work
[2] = test system: C57BL/6J mice; assay: tail suspension test in C57BL/6J mice; type: in vivo
Procedure: The tail suspension test is a variant of the “behavioral despair” forced swimming test in which immobility is induced by suspending an animal by the tail (Steru et al., 1985). […] C57BL/6 mice ([…] 21-25g) were housed, ten per cage, in light controlled chambers (12 hr. light/12 hr. dark cycle-lights on at 08.00 hr., off at 20.00 hr.) with free access to food and water. Each animal was tested in a chamber made out of white non-transparent plastics. The C57BL/6J mice are suitable animals for such a study since no enzymes of melatonin biosynthesis have been found in the pineal glands of this strain of mice (Ebihara et al., 1986). Therefore, the observed effects could not be attributed to melatonin. The chamber was 17 cm W×25 cm H×15 cm D with a hook (4 cm) attached to the center of the ceiling. There was no front wall to allow for the observation of the mouse behavior. The mouse was hung on a hook by an adhesive tape placed 15 mm from the extremity of its tail. The animal was positioned with its stomach towards the investigator to assure the observation of the total immobility. The distance between the floor of the chamber and the nose of the animal was 10 cm. Immobility was scored as a sum of the time periods during which the animal hung passively and motionless for at least 2 sec. The total period of observation was 6 min. Experiments were conducted between 10.00 hr. and 14.00 hr. in a quiet room. The source of the light (50 W fluorescent bulb) was positioned 2 m above the experimental chamber. Baseline, control experiments were conducted several days before the actual experiments. Only those animals whose cumulative duration of immobility during the 6 min. observation was no less than 100 sec. were selected for further experiments. Three animals were tested simultaneously. Each experimental group was composed of at least nine animals. […] Nifedipine was injected in a dose (5 mg/kg, i.p.) which, by itself, has no effect on the duration of immobility ([…] and Oxenkrug, 1998). […] Results were expressed as mean±S.D. (sec.) and statistically treated by ANOVA and Student t-test.

[3] = target: T1, MT-3 melatonin sites of hamster brain (Mesocricetus auratus, UniProt A0ABM2YAB8); conditions: cited from earlier work
T1 construct: MT-3 melatonin sites of hamster brain; host or cells: hamster brain
T1 sequence (A0ABM2YAB8 1-231): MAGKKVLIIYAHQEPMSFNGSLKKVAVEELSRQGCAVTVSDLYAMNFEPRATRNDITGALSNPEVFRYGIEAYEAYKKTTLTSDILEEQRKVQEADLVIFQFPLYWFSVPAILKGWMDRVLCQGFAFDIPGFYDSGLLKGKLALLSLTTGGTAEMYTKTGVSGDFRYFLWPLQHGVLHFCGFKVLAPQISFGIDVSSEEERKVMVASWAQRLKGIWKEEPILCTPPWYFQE

[4] = test system: other melatonin receptors; conditions: cited from earlier work

**Q.** For `COc1ccc2[nH]cc(CCNC(C)=O)c2c1` [Melatonin, N-acetyl-5-methoxytryptamine], which antidepressant-like activity [1] is on record?
**A.** Its antidepressant-like activity is “antidepressant-like activity”.

**Q.** For `COc1cc2nc(N3CCN(C(=O)c4ccco4)CC3)nc(N)c2cc1OC` [Prazocin, reference compound], which duration of immobility ([2]; prazocin 0.5 mg/kg alone) is on record?
**A.** Its duration of immobility is “did not affect the duration of immobility”.

**Q.** And the “effect on decrease of immobility induced by 5-MCA-NAT” value ([2]; prazocin 0.5 mg/kg injected 15 min before 5-MCA-NAT 50 mg/kg)?
**A.** Its value is “prevented decrease of immobility”.

**Q.** For `COC(=O)Nc1ccc2[nH]cc(CCNC(C)=O)c2c1` [5-MCA-NAT, 5-methoxy-carbonylamino-N-acetyltryptamine], which duration of immobility ([2]; 5-MCA-NAT 10 mg/kg i.p., 30 min before testing, 6 min observation) is on record?
**A.** The duration of immobility was “did not affect the duration of immobility”.

**Q.** What about the duration of immobility ([2]; 5-MCA-NAT 25 mg/kg i.p., 30 min before testing, 6 min observation) of the same compound?
**A.** Its duration of immobility is “decreased the duration of immobility”.

**Q.** And the duration of immobility ([2]; 5-MCA-NAT 50 mg/kg i.p., 30 min before testing, 6 min observation)?
**A.** The duration of immobility was “decreased the duration of immobility”.

**Q.** What about the duration of immobility ([2]; combination: 5-MCA-NAT 10 mg/kg i.p. with nifedipine 5 mg/kg i.p. injected 15 min after) of the same compound?
**A.** Its duration of immobility is “decreased the duration of immobility”.

**Q.** And the “affinity for MT-3 melatonin sites” value [3]?
**A.** The value was “high affinity”.

**Q.** And the “affinity or efficacy for other melatonin receptors” value [4]?
**A.** The value was “low affinity or efficacy”.
